SMILES strings stand for the structures. Like-named read-outs stand apart in the source and are kept apart here.

Series [1] in a line: Log P by HPLC on reversed phase columns, acidic range (EEC directive 79/831 Annex V.A8). It counts as physicochemical. The procedure:
Measurement of Log P values was performed according to EEC directive 79/831 Annex V.A8 by HPLC (High Performance Liquid Chromatography) on reversed phase columns with the following methods: • [^a] Log P value is determined by measurement of LC-UV, in an acidic range, with 0.1% formic acid in water and acetonitrile as eluent (linear gradient from 10% acetonitrile to 95% acetonitrile). • [^b] Log P value is determined by measurement of LC-UV, in a neutral range, with 0.001 molar ammonium acetate solution in water and acetonitrile as eluent (linear gradient from 10% acetonitrile to 95% acetonitrile).
Calibration was done with straight-chain alkan-2-ones (with 3 to 16 carbon atoms) with known Log P values (measurement of Log P values using retention times with linear interpolation between successive alkanones). Lambda-max-values were determined using UV-spectra from 200 nm to 400 nm and the peak values of the chromatographic signals.

A further series deals with Cooperia curticei. Description: microbe, parasite or virus in culture. As to conditions: 120 h, read-out: activity (larval mortality). It counts as cell-based. How it is done:
(§1) To produce a suitable preparation of active compound, 10 mg of active compound are dissolved in 0.5 ml dimethyl sulfoxide, and the concentrate is diluted with “Ringer's solution” to the desired concentration.
Approximately 40 nematode larvae (Cooperia curticei) are transferred into a test tube containing the compound solution. After 5 days percentage of larval mortality is recorded. 100% efficacy means all larvae are killed; 0% efficacy means no larvae are killed.

For the next series, the system named is Haemonchus contortus. Put plainly: microbe, parasite or virus in culture. It is filed as cell-based. As to conditions: 120 h, read-out: activity (larval mortality). The procedure:
as §1
Approximately 40 larvae of the red stomach worm (Haemonchus contortus) are transferred into a test tube containing compound solution. After 5 days percentage of larval mortality are recorded. 100% efficacy means all larvae are killed, 0% efficacy means no larvae are killed.

The mark [2] stands for this setting: reversed phase HPLC columns; LC-UV, acidic range, 0.1% formic acid in water and acetonitrile; read-out: logP a) (HCOOH).
[3] abbreviates: 20 ppm, after 5 days, Cooperia curticei larvae.
Where [4] appears, read: 4 ppm, after 5 days, Cooperia curticei larvae.
[5] abbreviates: 20 ppm, after 5 days, Haemonchus contortus larvae.

As to `O=C(NCC(F)(F)c1ncc(-c2ccoc2)cc1Cl)c1ccccc1C(F)(F)F` [Example 1], the chromatographic logP in series [1] (LC-UV, acidic range, 0.1% formic acid in water and acetonitrile; read-out: logP a) (HCOOH)) is 3.21. Besides, in the series with Cooperia curticei (Cooperia curticei), the mortality at 4 ppm was at least 90% and the mortality at 20 ppm is 100%.

In series [1], `Cn1c(C(F)(F)F)nn(-c2cnc(C(F)(F)CNC(=O)c3ccccc3C(F)(F)F)c(Cl)c2)c1=O` [Example 6] had a chromatographic logP of 3.32. For the same compound, in the series with Cooperia curticei (Cooperia curticei), the mortality at 4 ppm is at least 90%. For the same compound, the mortality at 20 ppm in the series on Cooperia curticei (Cooperia curticei) and in the series on Haemonchus contortus (Haemonchus contortus) was 100% throughout.

For the compound `O=C(NCC(F)(F)c1ncc(-n2cc(F)cn2)cc1Cl)c1nccnc1C(F)(F)F` [Example 7], the chromatographic logP in series [1] (setting [2]) was 2.88.

Take `O=C(NCC(F)(F)c1ncc(-c2cnn(CC(F)(F)F)c2)cc1Cl)c1nccnc1C(F)(F)F` [Example 17]: the chromatographic logP in series [1] (setting [2]) worked out at 2.85. The mortality at 20 ppm with Cooperia curticei (setting [3]) was 100%.

`O=C(NCC(F)(F)c1ncc(-n2ccc(C(F)(F)F)n2)cc1Cl)c1nccnc1C(F)(F)F` [Example 8] registered a chromatographic logP in series [1] of 3.49. Further, in the series with Cooperia curticei (Cooperia curticei), the mortality at 4 ppm was at least 90% and the mortality at 20 ppm came out at 100%.

On to `O=C(NCC(F)(F)c1ncc(-n2cc(F)cn2)cc1Cl)c1cccnc1C(F)(F)F` [Example 9], for which the chromatographic logP in series [1] (setting [2]) amounted to 2.7. Moreover, in the series with Cooperia curticei (setting [4]), the mortality at 4 ppm was at least 90%. For the same compound, in the series with Cooperia curticei (setting [3]), the mortality at 20 ppm was determined as 100%.

Turning to `Cc1occc1-c1cnc(C(F)(F)CNC(=O)c2ccccc2C(F)(F)F)c(Cl)c1` [Example 2], the chromatographic logP in series [1] (setting [2]) worked out at 3.53. In the series with Cooperia curticei (setting [4]), the mortality at 4 ppm is at least 90%. Moreover, the mortality at 20 ppm with Cooperia curticei (setting [3]) came out at 100%; with Haemonchus contortus (setting [5]) it was 90%.

`O=C(NCC(F)(F)c1ncc(-n2ccc(C(F)(F)F)n2)cc1Cl)c1cccnc1C(F)(F)F` [Example 13]: the chromatographic logP in series [1] (setting [2]) worked out at 3.27. The mortality at 4 ppm with Cooperia curticei (setting [4]) is at least 90%. Further, in the series with Cooperia curticei (setting [3]), the mortality at 20 ppm was determined as 100%.

For the compound `O=C(NCC(F)(F)c1ncc(-n2cc(C(F)(F)F)cn2)cc1Cl)c1ccccc1C(F)(F)F` [Example 3, N-[2-[3-chloro-5-[4-(trifluoromethyl)pyrazol-1-yl]-2-pyridyl]-2,2-difluoro-ethyl]-2-(trifluoromethyl)benzamide], the chromatographic logP in series [1] came to 3.62. In the series on Cooperia curticei (Cooperia curticei), the mortality at 4 ppm is at least 90% and the mortality at 20 ppm is 100%. In the series on Haemonchus contortus (Haemonchus contortus), the mortality at 20 ppm was determined as 100%.

On to `O=C(NCC(F)(F)c1ncc(-c2cnn(CC(F)(F)F)c2)cc1Cl)c1ccccc1C(F)(F)F` [Example 15], for which the chromatographic logP in series [1] (setting [2]) turned out to be 3.1. In addition, the mortality at 4 ppm with Cooperia curticei (setting [4]) is at least 90%. For the same compound, the mortality at 20 ppm with Cooperia curticei (setting [3]) worked out at 100%.

As to `O=C(NCC(F)(F)c1ncc(-n2cc(Cl)cn2)cc1Cl)c1cccnc1C(F)(F)F` [Example 18], the chromatographic logP in series [1] (setting [2]) stood at 3.07. Besides, in the series with Cooperia curticei (setting [4]), the mortality at 4 ppm was at least 90%. The mortality at 20 ppm in the series with Cooperia curticei (setting [3]) and in the series on Haemonchus contortus (setting [5]) was 100% throughout.

In the case of `O=C(NCC(F)(F)c1ncc(-c2cnn(CC(F)(F)F)c2)cc1Cl)c1cccnc1C(F)(F)F` [Example 16], the chromatographic logP in series [1] (setting [2]) was found to be 2.66. Moreover, in the series with Cooperia curticei (setting [3]), the mortality at 20 ppm was determined as 100%.

`O=C(NCC(F)(F)c1ncc(-n2ccc(C(F)(F)F)n2)cc1Cl)c1ccccc1C(F)(F)F` [Example 11]: the chromatographic logP in series [1] worked out at 3.63. For the same compound, in the series with Cooperia curticei (Cooperia curticei), the mortality at 4 ppm is at least 90% and the mortality at 20 ppm is 100%. For the same compound, in the series with Haemonchus contortus (Haemonchus contortus), the mortality at 20 ppm was 100%.

In turn, `O=C(NCC(F)(F)c1ncc(-n2cc(Cl)cn2)cc1Cl)c1ccccc1C(F)(F)F` [Example 12] displayed a chromatographic logP in series [1] of 3.5. Further, in the series on Cooperia curticei (Cooperia curticei), the mortality at 4 ppm was at least 90% and the mortality at 20 ppm is 100%. Besides, the mortality at 20 ppm in the series with Haemonchus contortus (Haemonchus contortus) was determined as 100%.

Turning to `O=C(NCC(F)(F)c1ncc(-n2cc(F)cn2)cc1Cl)c1ccccc1C(F)(F)F` [Example 5], the chromatographic logP in series [1] (setting [2]) is 3.12. Further, in the series on Cooperia curticei (setting [4]), the mortality at 4 ppm is at least 90%. In addition, the mortality at 20 ppm is 100% in the series on Cooperia curticei (setting [3]) and 90% with Haemonchus contortus (setting [5]).

Turning to `Cn1ccc(-c2cnc(C(F)(F)CNC(=O)c3ccccc3C(F)(F)F)c(Cl)c2)c1` [Example 4], the chromatographic logP in series [1] (setting [2]) turned out to be 3.22. Also, the mortality at 4 ppm in the series with Cooperia curticei (setting [4]) was at least 90%.

Regarding `O=C(NCC(F)(F)c1ncc(-n2cc(C(F)(F)F)cn2)cc1Cl)c1cccnc1C(F)(F)F` [Example 14], in series [1] (setting [2]), the chromatographic logP came to 3.24. Also, in the series on Cooperia curticei (setting [4]), the mortality at 4 ppm is at least 90%. In addition, the mortality at 20 ppm with Cooperia curticei (setting [3]) and in the series with Haemonchus contortus (setting [5]) was 100% each time.

Consider `O=C(NCC(F)(F)c1ncc(-n2cc(C(F)(F)F)cn2)cc1Cl)c1nccnc1C(F)(F)F` [Example 10], for which the chromatographic logP in series [1] (setting [2]) was determined as 3.43. In addition, the mortality at 4 ppm with Cooperia curticei (setting [4]) was at least 90%. Besides, the mortality at 20 ppm in the series with Cooperia curticei (setting [3]) and in the series with Haemonchus contortus (setting [5]) was 100% in each case.
